Data taken from patent publication US10052305B2, “Lipoic acid and derivatives thereof for the treatment of cystinuria” (Buck Institute for Research on Aging, priority 2015, dated 2018).

Columns and labels:
Type in all cases: in vivo
Slc3a1−/− mice [1] = test: Prevention of cystine stone formation in a genetic mouse model of cystinuria, evaluated by micro-computed tomography (μCT)
Description: A genetic mouse model of cystinuria was used to study the formation of cystine urinary stones. Mice lacking the gene Slc3a1 (Slc3a1^−/−) were fed a diet supplemented with 0.5% (±)-α-lipoic acid and evaluated for the formation of cystine stones using micro-computed tomography (μCT). […] On average, mice treated with lipoic acid developed much smaller cystine stones (mm^3). This experiment was repeated again (Experiment 2) with similar results; none (0 out of 6) of the lipoic acid treated cystinuric mice developed stones while all control, non-treated mice (8 out of 8) had developed urinary stones had developed stones by day 27 of the study.

Slc3a1−/− mice [2] = test: Effect on cystine urinary stone growth tracked by μCT after switch to a lipoic acid diet; details: Slc3a1−/− mice on standard diet, switched on day 54 to diet with 0.5% (±)-α-lipoic acid; before vs after treatment
Description: To evaluate the effect of lipoic acid on cystine urinary stone growth, stone development was tracked by micro-computed tomography (μCT) in Slc3a1^−/− mice fed a standard diet. On day 54 of the study, the mice were switched onto a diet supplemented with 0.5% (±)-α-lipoic acid.

[3] = Real time food and water intake in metabolic cages; details: Slc3a1−/− mice; 0.5% (±)-α-lipoic acid diet vs standard diet; 3 days after 3 days of acclimation
Method: Real time food and water intake was measured in Slc3a1^−/− mice treated with 0.5% (±)-α-lipoic acid supplemented diet by group housing in metabolic cages. Mice were acclimated to the metabolic cage environment for 3 days and then evaluated for food and water intake for the subsequent 3 days.

light cycle, dark cycle, or total food intake [3]: did not especially alter | light cycle, dark cycle, or total water intake [3]: did not especially alter
SMILES: O=C(O)CCCCC1CCSS1 (racemic) [Lipoic acid, (±)-α-lipoic acid]
mice that developed stones (Slc3a1−/− mice [1]; Experiment 2 (repeat), by day 27 of the study, non-treated mice 8 out of 8): 0 out of 6 | average cystine stone size vs non-treated mice (Slc3a1−/− mice [1]; first experiment (FIG. 2), diet supplemented with 0.5% (±)-α-lipoic acid): much smaller | mice that developed cystine stones (Slc3a1−/− mice [1]; first experiment (FIG. 2), diet supplemented with 0.5% (±)-α-lipoic acid, non-treated mice 7/7): 2 out of 8 | decrease of the rate of stone volume accumulation (mm^3/day) (Slc3a1−/− mice [2]): 90%
